Earlier results as cited in patent US20060182729A1, “Combat/training antioxidant micronutrient formulation and method of administration” (priority 2005, published 2006).

Assays:
[1] = oral supplementation, human subjects
[2] = system: mutagens in the small intestine; details: supplementation

Structure (SMILES) | plasma levels of glutathione [1] | formation of mutagens in the small intestine [2]
N[C@@H](CCC(=O)N[C@@H](CS)C(=O)NCC(=O)O)C(=O)O [glutathione] | failed to significantly increase | –
O=C1O[C@H]([C@@H](O)CO)C(O)=C1O [vitamin C, ascorbic acid] | – | reduces
